Data: patent US20060276381A1, “Remedy for diabetes” (Chugai Seiyaki Kabushiki Kaisha, priority 2002, published 2006)
No end group written: not given here.

What was measured:
food-deprived mice = test: Feeding tests in food-deprived lean mice; format: in vivo; settings: for Food intake: IP administration, food-deprived mice
[1] = tested on: mice with diet-induced obesity; test: Feeding test in mice with diet-induced obesity; format: in vivo; settings: IP, acute
ob/ob obese mice = test: Repeated IP administration of [D-Lys-3]-GHRP-6 in ob/ob obese mice; format: in vivo
[2] = tested on: gastric emptying rate in mice; test: Gastric emptying; format: in vivo; settings: IP, one hour after administration
Description: Before the experiments on gastric emptying, mice were food deprived for 16 hours with free access to water. The fasted mice had free access to pre-weighed pellets for one hour and were then administered [D-Lys-3]-GHRP-6. The mice were deprived of food again for one or two hours after administration. Food intake was measured by weighing the uneaten pellets. Mice were killed by cervical dislocation two or three hours after the start of the experiments. Immediately after that, the stomach was exposed by laparotomy, quickly ligated at both the pylorus and cardia, then removed, and its dry content was weighed. Gastric emptying was calculated according to the following formula: gastric emptying (%)={1−(dry weight of food recovered from the stomach/weight of food intake)}×100. (8) Repeated Administration

ob/ob mice = test: Feeding test in ob/ob mice; format: in vivo; settings: IP
GHS-R in the brain = target: T1, GHS-R in the brain (Mus musculus, UniProt Q99P50); test: Simultaneous administration of ghrelin (IP) and [D-Lys-3]-GHRP-6 (ICV), food intake; format: in vivo, mice; settings: free access to food
T1 construct: possibility that ghrelin would act through GHS-R in the brain; from tissue; host or cells: brain of living mice (ICV administration)
Description: For ICV administration, the mice were anesthetized with sodium pentobarbital (80-85 mg/kg IP) and placed in a stereotaxic instrument (SR-6, Narishige, Tokyo, Japan) seven days before the experiments. A hole was made in each skull by using a needle inserted 0.9 mm lateral to the central suture and 0.9 mm posterior to the bregma. A 24-gauge cannula (Safelet-Cas, Nipro, Osaka, Japan) beveled at one end over a distance of 3 mm was implanted into the third cerebral ventricle for ICV administration. The cannula was fixed to the skull with dental cement and capped with silicon. A 27-gauge injection insert was attached to a microsyringe by PE-20 tubing.
Before feeding tests, mice were food deprived for 16 hours with free access to water, except during an experiment on the effect of co-administration of [D-Lys-3]-GHRP-6 and ghrelin on food intake, in which mice were given free access to food and water. Food intake was measured by subtracting uneaten food from the initially pre-measured food at 20 minutes, 1, 2 and 4 hours after administration.
In order to evaluate the possibility that ghrelin would act through GHS-R in the brain, the inventors examined the effects of simultaneous administration of ghrelin and [D-Lys-3]-GHRP-6 on food intake.

rats = rats in vivo; cited from earlier work
[3] = tested on: lean mice under a high-fat diet
Description: Male mice of the ddy strain (34-37 g, JAPAN SLC, Shizuoka, Japan) and obese (ob/ob) C57BL/6J mice (68-74 g, Shionogi Co., Ltd., Shiga, Japan) were used. They were individually housed in a regulated environment (22±2° C., 55±10% humidity, 12:12 hour light:dark cycle with light on at 7:00 AM). Mice received a standard diet containing 12% of total energy as fat or a high-fat diet containing 45% of total energy as fat (CLEA Japan, INC., Tokyo, Japan). Food and water were available ad lib except as otherwise indicated. All experiments were approved by Kobe University animal care committee.
[D-Lys-3]-GHRP-6, [D-Arg-1, D-Phe-5, D-Trp-7, 9, Leu-11] substance P and rat ghrelin were purchased from BACHEM CALIFORNIA INC. (Torrance, Calif., USA), NEOSYSTEM (Strasbourg, France) and Peptide Institute (Osaka, Japan), respectively. Just before administration, each drug was diluted in 4 μl of artificial cerebrospinal fluid (ACSF) for intra-third cerebroventricular (ICV) administration or in 100 μl of physiological saline for intraperitoneal (IP) administration. Results are expressed as mean value±s.e.m. Analysis of variance(ANOVA) followed by Bonferroni's t test was used to assess the differences among groups. P<0.05 was considered to be statistically significant.
(§1) Repeated IP administrations were continued for five days in lean mice under a high-fat diet or a standard diet, and for six days in […] obese mice under a standard diet, respectively. The mice were given the administration at 7:00 AM and 19:00 PM. Food intake and body weight were measured daily. Serum was separated from blood obtained from the orbital sinus under ether anesthesia at the end of the experiment (eight hours after removal of food and the final IP administration). Mice were killed by cervical dislocation. Immediately after that, the epididymal fat pad mass assessed as white adipose tissue (WAT) and the gastrocnemius muscle were removed and weighed. Blood glucose was measured by the glucose oxidase method. Serum insulin and free fatty acids (FFA) were measured by enzyme immunoassay and enzymatic method (EIKEN CHEMICAL CO., LTD., Tokyo, Japan), respectively. Serum triglycerides and total cholesterol were measured by an enzymatic method (Wako Pure Chemical Industries, Ltd., Tokyo, Japan).
(§2) Subsequently, mRNA levels of leptin, adiponectin and resistin in WAT were assessed.

pituitary gland cells = settings: primary culture of pituitary gland cells; cited from earlier work
GHS-R = GHS-R (Rattus norvegicus, UniProt O08725); settings: CHO cells having GHS-R expressed, chemically synthesized ghrelin; cited from earlier work
[4] = tested on: leptin and resistin mRNA in WAT; settings: repeated IP administrations of ghrelin
Description: as §1, §2

[5] = rat des-Gln14-ghrelin; cited from earlier work
[6] = 20 nmol IP every 12 hours for 6 days
[7] = 200 nmol IP every 12 hours for 6 days
[8] = HF diet, every 12 hours for 5 days, lean mice, mean ± s.e.m.
[9] = IP 3 nmol/mouse twice daily for five days
[10] = IP 3 nmol/mouse twice daily for five days, high-fat diet

T1 sequence (Q99P50 whole entry): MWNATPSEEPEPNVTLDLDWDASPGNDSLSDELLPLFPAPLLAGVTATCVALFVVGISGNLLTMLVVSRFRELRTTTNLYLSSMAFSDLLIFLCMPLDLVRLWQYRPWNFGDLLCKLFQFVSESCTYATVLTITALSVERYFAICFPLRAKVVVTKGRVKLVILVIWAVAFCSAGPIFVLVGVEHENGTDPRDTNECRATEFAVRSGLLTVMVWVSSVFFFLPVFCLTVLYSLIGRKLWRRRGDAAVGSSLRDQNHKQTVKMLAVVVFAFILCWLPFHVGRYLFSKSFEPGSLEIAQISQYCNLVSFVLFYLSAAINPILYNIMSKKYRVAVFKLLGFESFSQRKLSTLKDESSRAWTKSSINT
Chain of GHS-R (O08725 whole entry): as the sequence (Q99P50 whole entry) above, with S30P, S249A counted along it

Substance: [D-Arg-1, D-Phe-5, D-Trp-7, 9, Leu-11] substance P
- Food intake (food-deprived mice): significantly reduced food intake in a dose-dependent manner

Substance: [D-Lys-3]-GHRP-6
- Body weight gain [1]: resulting decrease in body weight gain
- Food intake [1]: decreased potently
- Feeding behavior (food-deprived mice; ICV administration): potent decrease in feeding behavior
- Food intake (food-deprived mice): significantly reduced food intake in a dose-dependent manner
- Cholesterol (ob/ob obese mice; [6]): 219.0 ± 11.24 mg/dL
- Fat pad mass (epididymal) (ob/ob obese mice; [6]): 0.897 ± 0.169 g
- Food intake (ob/ob obese mice; [6]): 4.527 ± 0.261 g/day
- Free fatty acids (ob/ob obese mice; [6]): 2.036 ± 0.121 meq/l
- Glucose (blood) (ob/ob obese mice; [6]): 217.3 ± 27.90 mg/dL
- Insulin (ob/ob obese mice; [6]): 41.61 ± 10.85 ng/mL
- Skeletal muscle (gastrocnemius) (ob/ob obese mice; [6]): 0.314 ± 0.009 g
- Triglycerides (ob/ob obese mice; [6]): 38.57 ± 3.551 mg/dL
- Cholesterol (ob/ob obese mice; [7]): 228.4 ± 21.84 mg/dL
- Fat pad mass (epididymal) (ob/ob obese mice; [7]): 0.860 ± 0.086 g
- Food intake (ob/ob obese mice; [7]): 4.285 ± 0.298 g/day
- Free fatty acids (ob/ob obese mice; [7]): 1.646 ± 0.078 meq/l
- Glucose (blood) (ob/ob obese mice; [7]): 134.9 ± 19.47 mg/dL
- Insulin (ob/ob obese mice; [7]): 36.54 ± 8.695 ng/mL
- Skeletal muscle (gastrocnemius) (ob/ob obese mice; [7]): 0.326 ± 0.013 g
- Triglycerides (ob/ob obese mice; [7]): 41.14 ± 5.990 mg/dL
- Blood glucose concentrations (ob/ob obese mice; repeated administrations): significantly lowered
- Body weight gain (ob/ob obese mice; repeated administrations): significantly lowered
- Muscle weight (ob/ob obese mice; repeated administrations): without reducing the muscle weight
- Reduction of FFA levels compared with physiological saline-treated ob/ob mice (ob/ob obese mice; repeated administrations): 24%
- Gastric emptying rate [2]: significant decrease in the gastric emptying rate
- Food intake (ob/ob mice): significantly reduced food intake in ob/ob mice
- Effect on feeding induced by IP administration of ghrelin (GHS-R in the brain; [D-Lys-3]-GHRP-6 ICV): abolished the stimulatory effects on the feeding

Substance: ghrelin
- Growth hormone in the blood (rats): elevates growth hormone in the blood
- Calorie intake [3, 8]: 25.94 ± 2.562 kcal/day
- Cholesterol [3, 8]: 224.8 ± 19.69 mg/dL
- Fat pad mass (epididymal) [3, 8]: 1.202 ± 0.175 g
- Free fatty acids [3, 8]: 1.636 ± 0.047 meq/l
- Glucose (blood) [3, 8]: 160.5 ± 8.977 mg/dL
- Insulin [3, 8]: 2.520 ± 0.945 ng/mL
- Skeletal muscle (gastrocnemius) [3, 8]: 0.340 ± 0.005 g
- Triglycerides [3, 8]: 32.80 ± 7.965 mg/dL
- Fat pad mass increase compared with saline-treated mice fed high-fat diet [3, 9]: 125%
- Fat pad mass increase compared with saline-treated mice fed standard diet [3, 9]: 49%
- Blood glucose concentrations [3, 10]: moderate increase
- Body weight gain [3, 10]: increased significantly
- Daily energy intake [3, 10]: concomitant increase
- Serum cholesterol level [3, 10]: also increased
- Serum insulin level [3, 10]: also increased
- Skeletal muscle weight [3, 10]: did not show any increase in weight
- Growth hormone release (pituitary gland cells): activity of releasing growth hormone
- Amount having the activity of elevating intracellular Ca++ (GHS-R): nanomolar order
- Leptin mRNA expression in WAT [4]: increased
- Resistin mRNA expression in WAT [4]: reducing
- Feeding after IP ghrelin (GHS-R in the brain): stimulatory effects on the feeding

Substance: des-Gln14-ghrelin: ghrelin analog in which Gln 14 in ghrelin is deleted (GSSFLSPEHQKAQRKESKKPPAKLQPR; ends and bridges not checked; UniProt Q9QYH7 24-51, looked up, variant Q14*)
- Growth hormone releasing activity relative to ghrelin [5]: the same intensity of growth hormone releasing activity
